Reference: US20250034164A1, “NOVEL COMPOUND AND COMPOSITION FOR PREVENTING OR TREATING NEUROINFLAMMATORY BRAIN DISEASES COMPRISING SAME AS ACTIVE INGREDIENT” (KOREA INSTITUTE OF OCEAN SCIENCE & TECHNOLOGY, priority 2021, published 2025)

Tests used:
[1] = system: inducible nitric oxide synthase (iNOS); test: iNOS protein and gene expression in LPS-treated BV-2 cells (Western blot, RT-PCR); format: cell-based, mouse; conditions: LPS 200 ng/ml, 2 to 80 μg/ml, protein 18 hours, gene 6 hours
Experimental: (§1) BV-2 microglia cells were cultured in a humidified 5% CO2 incubator at 37° C. using a Dulbecco's modified Eagle medium supplemented with 5% fetal bovine serum and 1% penicillin/streptomycin at 100 units/mL.
(§2) After culturing for 18 hours, the proteins were identified, and the expression patterns of iNOS and COX-2 proteins were confirmed by performing Western blot using polyclonal antibodies to iNOS and COX-2. For 6 hours after culturing the BV-2 cells by setting the same conditions, the cell supernatant was removed, RNA was identified from the cells, and iNOS and COX-2 genes were analyzed by RT-PCR. As a result, as shown in FIGS. 30(c), 35(c), and 36(c), it could be confirmed that natural product Compound 1 and derivative Compounds 4 and 6 decreased the expression levels of iNOS and COX-2 proteins and genes in a concentration-dependent manner.

[2] = system: cyclooxygenase type 2 (COX-2); test: COX-2 protein and gene expression in LPS-treated BV-2 cells (Western blot, RT-PCR); format: cell-based, mouse; conditions: LPS 200 ng/ml, 2 to 80 μg/ml, protein 18 hours, gene 6 hours
Experimental: as §1, §2

[3] = system: TNF-α; test: TNF-α gene expression in LPS-stimulated BV-2 microglia cells (RT-PCR); format: cell-based, mouse; conditions: BV-2 cells, pretreated 1 hour at 2 to 80 μg/ml, LPS 200 ng/ml, 6 hours
Experimental: as §1
(§3) Then, the cells were stimulated with LPS (200 ng/ml). After 6 hours, the cell supernatant was removed, RNA was identified from the cells, and TNF-α, IL1-β, and IL-6 genes were analyzed by RT-PCR. As a result, as shown in FIGS. 30(d), 35(d), and 36(d), it could be confirmed that natural product compound 1 and derivative compounds 4 and 6 decreased the expression levels of TNF-α, IL1-β, and IL-6 genes in a concentration-dependent manner.

[4] = system: IL-6; test: IL-6 gene expression in LPS-stimulated BV-2 microglia cells (RT-PCR); format: cell-based, mouse; conditions: BV-2 cells, pretreated 1 hour at 2 to 80 μg/ml, LPS 200 ng/ml, 6 hours
Experimental: as §1, §3

[5] = system: nitric oxide (NO) produced in mouse BV-2 microglia cells stimulated with LPS; test: NO production inhibition in LPS-stimulated BV-2 microglia cells (Griess reagent); format: cell-based; conditions: LPS 200 ng/ml; for IC50: mouse BV-2 microglia cells, 24 h, read-out: NO inhibitory activity (IC50 value)
Experimental: as §1
In all experiments, the number of cells was 2.5×10^5 cell/ml, the cells were first treated with each of Compounds of Examples 1 to 25 by concentration (2.5 to 200 μg/ml), and LPS was diluted in medium and used at a concentration of 200 ng/ml. A cytotoxicity test was performed using MTT assay, and the MTT assay was performed by performing NO assay and injecting 30 μl of MTT at a concentration of 0.5 mg/ml into the cells in a microplate. After reacting for 2 hours in the incubator, formazan crystals were dissolved in 100 μl of DMSO, and the absorbance was measured using a Vmax microplate reader (Tencan Co., Switzerland) with a wavelength of 540 nm. In order to quantitatively measure the production of nitric oxide (NO), mouse BV-2 microglia cells were prepared in a microplate (96 well), and added with LPS (200 ng/ml) and Compounds by concentration (2.5 to 200 μg/ml). The cells reacted in an incubator for 24 h, and 50 μl of the supernatant reacted with a Griess reagent (a mixed solution of 1% sulfanilamide, 0.1% N-(1-naphthyl)-ethylenediamine dihydrochloride, and 2.5% H3PO4), and then the absorbance was measured using a Vmax 96-well microplate spectrophotometer with a wavelength of 550 nm.
In order to analyze the anti-inflammatory efficacy of Compound of Example 1, the concentration inhibitory effect of nitric oxide (NO) produced in mouse BV-2 microglia cells stimulated with LPS (200 ng/ml), a neuroinflammatory factor, was confirmed.
The neuroinflammation inhibitory effects of Compounds of Examples 2 to 25 were confirmed.
In order to analyze the anti-inflammatory efficacy of Compound 26 of Chemical Formula 2, the concentration inhibitory effect of nitric oxide (NO) produced in mouse BV-2 microglia cells stimulated with LPS (200 ng/ml), a neuroinflammatory factor, was confirmed. Compound 26 of Chemical Formula 2 was purchased from Santa Cruz biotechnology (CAS 79127-35-8) and the experiment was performed. As a result of treating Compound of Chemical Formula 2 at […], it was confirmed that the amount of nitric oxide (NO) was reduced, as shown in FIG. 37A.

[6] = system: IL1-β; test: IL1-β gene expression in LPS-stimulated BV-2 microglia cells (RT-PCR); format: cell-based, mouse; conditions: BV-2 cells, pretreated 1 hour at 2 to 80 μg/ml, LPS 200 ng/ml, 6 hours
Experimental: as §1, §3

| SMILES | expression levels of iNOS proteins and genes [1] | expression levels of COX-2 proteins and genes [2] | expression levels of TNF-α gene [3] | expression levels of IL-6 gene [4] | amount of nitric oxide (NO) ([5]; BV-2 cells, treated at 20 to 60 μM (FIG. 30A)) | IC50 [5] | expression levels of IL1-β gene [6] |
| --- | --- | --- | --- | --- | --- | --- | --- |
| O=C1O[C@@H]2OC(CO)=C[C@H]3[C@@H]2C=C[C@@H]13 [Compound 1, (1S,4aS,5R,7aS)-3-(hydroxymethyl)-1,4a,5,7a-tetrahydro-1,5-(epoxymethano)cyclopenta[c]pyran-8-one] | decreased | decreased | decreased | decreased | reduced | 46.6 µM | decreased |
| O=C(OCC1=C[C@H]2[C@@H]3C=C[C@H]2C(=O)O[C@@H]3O1)c1ccc(Br)cc1 [Compound 4, ((1S,4aS,5R,7aS)-8-oxo-1,4a,5,7a-tetrahydro-1,5-(epoxymethano)cyclopenta[c]pyran-3-yl)methyl 4-bromobenzoate] | decreased | decreased | decreased | decreased | – | 13.3 µM | decreased |
| O=CC1=C[C@H]2[C@@H]3C=C[C@H]2C(=O)O[C@@H]3O1 [Compound 6, (1S,4aS,5R,7aS)-8-oxo-1,4a,5,7a-tetrahydro-1,5-(epoxymethano)cyclopenta[c]pyran-3-carbaldehyde] | decreased | decreased | decreased | decreased | – | 4.5 µM | decreased |
